Columns and labels:
skin = assay: Homing of peptide after intravenous delivery in vivo; parameters: species or system mouse
Procedure: (§1) Another method used was to perfuse murine hearts ex-vivo on a Langendorf apparatus, administer the phage through the coronary circulation, and then rescue the phage that entered the myocardium. In vivo experiments were also done in which phage was injected into the general circulation of a mouse, any phage binding to the vasculature was removed by treatment with an enzyme solution, and then phage that had entered tissue parenchyma were rescued and enriched.

[1] = tested on: heart, skeletal muscle, skin, brain; assay: In vivo translocation of peptide-displaying phage into tissue parenchyma; parameters: species or system mouse
Procedure: as §1

[2] = tested on: parenchyma of the heart (myocardium); assay: Uptake of rhodamine-labeled peptide into heart after coronary infusion; assay type: in vivo, mouse; details: single pass infusion through the coronary circulation, FIGS. 4A-C
Description: In experiments designed to test the ability of these peptides to cross the endothelium and enter cells in vivo, synthetic transport peptides labeled with the fluorescent marker rhodamine were infused into the coronary circulation of mice. […] Peptides selected for internalization were capable of internalizing into the myocardium efficiently.
One such transport peptide is RRGRRRGR.

[3] = tested on: rat aortic and adult human smooth muscle cells; assay: Internalization of rhodamine-labeled peptide into smooth muscle cells; assay type: cell-based; details: FIG. 3B
Description: (§2) To test the properties of the peptides defined, small scale synthesis of these peptides was ordered, labeled with rhodamine for fluorescent localization, from the Keck facility at Yale University. They were then used in in vitro and in vivo experiments to investigate the ability of these peptides to enter cells and tissues.
(§3) FIGS. 3A and 3B show pictures depicting highly efficient internalization of these peptides into cells in culture. One such transport peptide is RRGRRRGR.

[4] = tested on: endothelial cells (HUVEC cells); assay: Internalization of rhodamine-labeled peptide into endothelial cells; assay type: cell-based, human; details: FIG. 3A
Description: as §2, §3

GSRHPPL (Transport peptide)
homing (tissue targeting) (skin): appears to significantly target skin

LLAVPAA (Transport peptide)
crossing the blood brain barrier and entry into the brain [1]: appears capable of crossing the blood brain barrier and entry into the brain | translocating phage into tissues ([1]; phage displaying the peptide, heart, skeletal muscle, skin): capable of translocating phage into heart, skeletal muscle, skin

RRGRRRGR (Transport peptide)
uptake into the parenchyma of the heart [2]: efficient uptake | uptake (internalization) into smooth muscle cells [3]: efficient uptake | uptake (internalization) into endothelial cells [4]: efficient uptake
